≈ marks a conversion by molar mass, not a printed value.
Columns and labels:
ALL3 cells = experiment: Cytotoxicity in vitro toward ALL3 cells; assay type: cell-based; conditions: Homo sapiens
Description: (§1) The cell lines HL-60 (human acute promyelocytic leukemia), Jurkat (human acute T cell leukemia), Molt3 (acute lymphoblastic leukemia), CWR22 (prostate carcinoma), HEK293 (human embryonic kidney), K562 (human chronic myeloid leukemia lymphoblasts), Y79 (human retinoblastoma) were obtained from the ATCC, and cultured following ATCC recommendations. The cell line NCEB-1 (human non-hodgkin lymphoma) was obtained from Dr. O'Connor (Sloan-Kettering Institute). The cell line HL-60/RV+ (a P-glycoprotein-overexpressing multi-drug resistant HL-60 variant selected by continuous exposure to vincristine) was described elsewhere (Weisburg et al., J. Biol. Chem. 1999, 274, 10877-10888). The cell line ALL-3 (acute lymphoblastic leukemia isolated from a patient treated at MSKCC and characterized as Philadelphia chromosome positive) was obtained from Dr. Mark Frattini (MSKCC). The assay used for the cytotoxicity studies is based on the dye resazurin and commercially sold as Alamar Blue (O'Brien et al., Eur. J. Biochem. 2000, 267, 5421-5426). Cells were added in 45 μL medium to the pre-plated compounds in 5 μL of 1% DMSO (v/v). After incubation for 72 hours, 5 μL of Alamar Blue was added.

ALL-3 cells = experiment: In vivo efficacy, mouse xenograft model using ALL-3 cells; conditions: 1 and 3 mg/kg i.p. twice a week for two weeks
Method: The in vivo efficacy of SKI 396848 (SKC-BF-12) was assessed in a mouse xenograft model using ALL-3 cells isolated from a patient with acute lymphoblastic leukemia refractory to imatinib. Three mice per group were treated at two doses: 1 and 3 mg/kg. A control group of three mice was treated with the vehicle (20% DMSO v/v). Mice were treated twice a week for two weeks i.p. Their weight was monitored as well as any other sign of toxicity for 14 days. […] Nonetheless, the observed difference between the treated groups and the control group was significant, and our study provides a solid proof of concept for the use of benzofuran-4,5-dione based HsPDF inhibitors as novel antitumor agents in vivo.

[1] = In vivo toxicity of benzofuran-4,5-diones; conditions: i.p. twice a day for four days, 1 to 10 mg/kg, monitored 14 days
Method: Lead compound SKC-BF-13 and another newly synthesized derivative SKC-BF-02 were selected in order to assess the in vivo toxicity of benzofuran-4,5-diones. Three mice per group were treated with BF-13 at three doses (i.e., 1, 5 and 10 mg/kg) or with SKC-BF-02 at two doses (i.e., 1 and 10 mg/kg). A control group of two mice were treated with the vehicle (i.e., 20% DMSO v/v). Mice were treated twice a day for four days via intraperitoneal administration. Their weight was monitored along with any other signs of toxicity for fourteen days.
ICR/SCID male mice about three weeks old were used in this study. Three mice per group were treated with BF-13 at three doses (i.e., 1, 5 and 10 mg/kg) or with SKC-BF-02 at two doses (i.e., 1 and 10 mg/kg). A control group of two mice were treated with the vehicle (20% DMSO v/v). Mice were treated twice a day for four days via intraperitoneal administration. Their weight was monitored as well as any other sign of toxicity for 14 days.
SKI 396848 (SKC-BF-12) and SKI 396840 (SKC-BF-02) were synthesized during the first round of exploratory chemistry to assess the in vivo toxicity of benzofuran-4,5-diones (as shown in FIG. 8). Three ICR/SCID male mice per group were treated with SKI 396848 at three doses: 1, 5 and 10 mg/kg or with SKI 396840 at two doses: 1 and 10 mg/kg. A control group of two mice was treated with the vehicle (20% DMSO v/v). Mice were treated twice a day for four days i.p. Their weight was monitored as well as any other sign of toxicity for 14 days. One treated mouse per group was evaluated by a pathologist.

EcPDF [2] = test system: EcPDF
Method: Head of the field: EcPDF %I 10uM
(§2) Specificity profiling of the derivatives of benzofuran-4,5-diones.
Where the first naming reader finds the target: head: EcPDF %I 10uM

MMP-1 = MMP-1 %I 100uM
Method: Table printed on a drawing sheet, Figure 5
Head of the field: MMP-1 %I 100uM
Footnotes: -26 124 % inhibition
The patent's description of the figure: FIG. 5.
Where the first naming reader finds the target: head: MMP-1 %I 100uM

Jurkat tumors = experiment: In vivo study, mouse xenograft with Jurkat tumors; conditions: 5, 15 and 30 mg/kg i.p. twice a week for three weeks
Method: In this study, higher doses could be achieved by injecting the drug in a small volume (100 μL) of 100% DMSO (v/v). Three mice per group were treated at three doses: 5, 15 and 30 mg/kg. A control group of three mice was treated with the vehicle (100% DMSO v/v). Mice were treated i.p. twice a week for three weeks. Unfortunately, a large variability in the growth of the Jurkat tumors caused data interpretation to be difficult.

EcPDF [3] = test system: EcPDF; remark: listed apart in the source
Method: Head of the field: EcPDF %I 100uM
as §2
Where the first naming reader finds the target: head: EcPDF %I 100uM

[4] = test system: panel of cancer cell lines; experiment: Cytotoxicity assay (Alamar Blue), primary hits and first generation derivatives; assay type: cell-based, human; conditions: Homo sapiens; first generation, panel of nine cancer cell lines; SKC-BF-13: on four cell lines; read-out: cytotoxicity IC50, Alamar Blue viability assay
Method: Cytotoxicity assays were performed in order to profile the thirty-three newly synthesized benzofuran-4,5-dione derivatives on a panel of nine cancer cell lines. A heat map summarizes the calculated IC50s ([…]). Twelve out of thirteen derivatives potent toward HsPDF were also cytotoxic toward several cancer cell lines (FIG. 7).
as §1, with “Cells were added in 45 μL medium to the pre-plated compounds in 5 μL of 1% DMSO (v/v). After incubation for 72 hours, 5 μL of Alamar Blue was added.” left out

HsPDF = target: T1, HsPDF (Homo sapiens, UniProt Q9HBH1); experiment: FP binding assay (fluorescence polarization, probe SKI 267088), specificity profiling and dose response; conditions: dose response, 12 point doubling dilutions, upper limit 100 μM
T1 construct: A 63 amino acid N-terminally truncated human peptide deformylase (HsPDF); 6His (C); made in house; host or cells: E. coli BL21 (DE3), co-transformed with the GroES/EL chaperone plasmid
T1 sequence (Q9HBH1 64-243 limits assumed): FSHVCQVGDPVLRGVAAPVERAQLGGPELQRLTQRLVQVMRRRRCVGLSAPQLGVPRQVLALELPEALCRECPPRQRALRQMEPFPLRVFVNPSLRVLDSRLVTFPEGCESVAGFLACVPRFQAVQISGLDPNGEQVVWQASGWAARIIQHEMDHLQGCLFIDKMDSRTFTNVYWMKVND
Method: Specificity profiling was performed on the newly synthesized benzofuran-4,5-diones using the aforementioned FP profiling method (Antczak et al., J. Biomol. Screen 2008, 13, 285-294).
Compounds or high/low controls were added to the wells at a volume of 2 μL. […] High controls consisted of 1% DMSO (v/v). MBP-HsPDF or the metalloprotease to be tested was diluted in the assay buffer (25 mM Hepes, 50 mM NaCl, 0.005% Tween 20, pH 7.5), and 10 μL where added to the 384-well microplates (Low Volume Round Bottom NBS Treated, Corning) to achieve a final concentration of 1 μM. After addition of MBP-HsPDF to the tested compounds, the 384-well microplates were preincubated for one hour at room temperature. Then 8 μL of the probe SKI 267088 in solution in assay buffer was added to the wells at a final concentration of 5 nM. After one hour incubation at room temperature, the fluorescence polarization was read using the Amersham LEADseeker™ Multimodality Imaging System equipped with Cy3 excitation/emission filters and Cy3 FP epi-mirror. Quench tests were performed in duplicate by measuring the fluorescence polarization of wells containing the probe, pre- and post-addition of the compounds at 100 μM.
In each assay, the signal inhibition induced by the compounds was expressed as a percentage compared to high and low controls located on the same plate, as defined as % Inhibition=(high control average−read value)/(high control average−low control average)×100. The dose response was assessed in duplicate and using 12 point doubling dilutions with 100 μM compound concentration as the upper limit. The dose response curve for each set of data was fitted separately, and the two IC50 values obtained were averaged.

Jurkat cell line = experiment: Cytotoxicity in vitro toward Jurkat cell line; assay type: cell-based; conditions: Homo sapiens, acute T-cell leukemia
Description: as §1

[5] = test system: panel of eight cancer cell lines; experiment: Cytotoxicity profiling of 26 second generation derivatives (Alamar Blue viability assay, nuclei count); assay type: cell-based, human
Method: Cytotoxicity profiling for the 26 newly synthesized benzofuran-4,5-diones derivatives was performed on a panel of eight cancer cell lines.
The cell lines HL-60 (human acute promyelocytic leukemia), Jurkat (human acute T cell leukemia), Molt3 (acute lymphoblastic leukemia), CWR22 (prostate carcinoma), K562 (human chronic myeloid leukemia lymphoblasts), and Y79 (human retinoblastoma) were obtained from the ATCC, and cultured following ATCC recommendations. The cell line HL-60/RV+ (a P-glycoprotein-overexpressing multi-drug resistant HL-60 variant selected by continuous exposure to vincristine) was described elsewhere (Weisburg J H, Roepe P D, Dzekunov S, Scheinberg D A: Intracellular pH and multidrug resistance regulate complement-mediated cytotoxicity of nucleated human cells. J Biol Chem 1999; 274:10877-10888). The cell line ALL-3 (acute lymphoblastic leukemia isolated from a patient treated at MSKCC and characterized as Philadelphia chromosome positive) was obtained from Dr. Mark Frattini (MSKCC). The viability assay we used in this study is based on the dye resazurin and commercially sold as Alamar Blue (O'Brien J, Wilson I, Orton T, Pognan F: Investigation of the Alamar Blue (resazurin) fluorescent dye for the assessment of mammalian cell cytotoxicity. Eur J Biochem 2000; 267:5421-5426). Cells were added in 45 μL medium to the pre-plated compounds in 5 μL of 1% DMSO (v/v). After 72 h incubation was added 5 μL Alamar Blue. […] Plates were then fixed and nuclei were stained using Hoechst for the nuclear count proliferation assay. Imaging for Hoechst staining of nuclei count were acquired with an IN Cell Analyzer 2000 epifluorescence automated microscope ([…]) (GE Healthcare, Piscataway, N.J.) equipped with a 4× objective, using D360/40 excitation filter (360 nm excitation peak; +/−40 nm bandpass), HQ535/50 emission filter (535 nm emission peak; +/−50 nm bandpass) and Q505LP dichroic, and exposing fields for 200 milliseconds in the blue channel. Image analysis was conducted with the IN Cell Developer 1.7 software (GE Healthcare) using custom-developed analysis modules. The analysis module used for nuclei count performs object segmentation in the blue channel to automatically define and count the number of nuclei. Data is reported as the sum of imaged nuclei.
In addition of the Alamar Blue viability assay readout, for the adherent cell lines of this panel (CWR22 and Meso47) we performed a direct nuclei count to assess the effect of the novel derivatives on cell proliferation.

[6] = Aqueous solubility limit by laser nephelometry; assay type: physicochemical; conditions: aqueous solution (composition not stated), kinetic from dmso stock, upper limit 10 μM
Description: We assessed the aqueous solubility limit for the 26 novel benzofuran-4,5-diones using laser nephelometry. […] Data were compared to standards of known turbidity to assess the solubility limit for each compound.

Row | Structure (SMILES) | IC50 (ALL3 cells) [µM] | tumor progression in ALL-3 xenograft (ALL-3 cells) | signs of toxicity in vivo (weight and other signs) [1] | EcPDF %I 10uM (EcPDF [2]) [%I] | MMP-1 %I 100uM (MMP-1) [%I] | body weight of treated groups (Jurkat tumors) | EcPDF %I 100uM (EcPDF [3]) [%I] | IC50 [4] [µM] | IC50 (HsPDF) [µM] | IC50 (Jurkat cell line) [µM] | activity against the cell lines of the panel, second generation [5] | solubility [6] [µM]
1 | COc1ccc(C(=O)c2coc3c2C(=O)C(=O)C(Br)=C3Br)cc1OC [SKC-BF-12, 6,7-Dibromo-3-(3,4-dimethoxy-benzoyl)-benzofuran-4,5-dione] | 36 | only a slight delay in tumor progression | None of the treatments were found to induce any signs of toxicity | 35 | 46 |  |  |  |  |  |  | 
2 | COc1cc(C(=O)c2coc3c2C(=O)C(=O)C(Br)=C3Br)cc(OC)c1OC [SKC-BF-13, 6,7-Dibromo-3-(3,4,5-trimethoxy-benzoyl)-benzofuran-4,5-dione] |  |  | none of the treatments induced any sign of toxicity | 32 | 38 | no loss of weight | 32 | < 10 | 5.2 | 3 |  | 
3 | O=C1C(=O)c2c(C(=O)c3ccc(Cl)c(Cl)c3)coc2C(Cl)=C1Cl [SKI 417516, 6,7-dichloro-3-(3,4-dichlorobenzoyl)benzofuran-4,5-dione] |  |  |  |  |  |  |  |  |  |  | active against all cell lines of our panel except Meso47 | 5 (≈ 1.95 µg/mL)
